In patent US9249129B2, “Morpholino substituted urea derivatives as mTOR inhibitors” (CELLZOME LIMITED, priority 2010, dated 2016):

How the values were obtained:
Assay in all cases: kinobeads assay with mass spectrometry detection of kinases (kinase selectivity profile)
Format in all cases: binding
kinases (kinome) [1] = target: T1, kinases (kinome) (Homo sapiens, UniProt P19784); settings: CK2a2 (Other), IPI00020602
T1 construct: determined in kinobeads assays with mass spectrometry detection of kinases as described previously; endogenous in cells; host or cells: cell lysate
Text: (§1) The protein kinase complement of the human genome (the kinome) was described previously (Manning et al., 2002. Science 298(5600):1912-1934). Sequence accession numbers are defined by the International Protein Index (IPI) (Kersey et al., 2004. Proteomics 4(7):1985-1988).

kinases (kinome) [2] = target: T2, kinases (kinome) (Homo sapiens, UniProt Q99640); settings: MYT1 (Other), IPI00909627
T2 construct: determined in kinobeads assays with mass spectrometry detection of kinases as described previously; endogenous in cells; host or cells: cell lysate
T2 sequence (Q99640 1-499): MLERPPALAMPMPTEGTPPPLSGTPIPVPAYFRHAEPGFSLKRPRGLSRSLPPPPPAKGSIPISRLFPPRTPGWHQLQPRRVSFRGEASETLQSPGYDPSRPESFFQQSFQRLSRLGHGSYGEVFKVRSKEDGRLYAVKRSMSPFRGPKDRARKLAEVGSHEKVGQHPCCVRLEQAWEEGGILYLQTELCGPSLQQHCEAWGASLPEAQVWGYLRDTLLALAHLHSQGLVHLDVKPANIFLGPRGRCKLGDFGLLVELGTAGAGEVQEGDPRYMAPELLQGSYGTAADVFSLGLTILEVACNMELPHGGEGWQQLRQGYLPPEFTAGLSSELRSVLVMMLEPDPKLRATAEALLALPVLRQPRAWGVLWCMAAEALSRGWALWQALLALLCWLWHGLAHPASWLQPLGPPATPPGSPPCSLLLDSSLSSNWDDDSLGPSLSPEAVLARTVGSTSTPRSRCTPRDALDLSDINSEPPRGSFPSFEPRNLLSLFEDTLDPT
Text: as §1

kinases (kinome) [3] = target: T3, kinases (kinome) (Homo sapiens, UniProt Q9Y2U5); settings: MAP3K2 (STE), IPI00513803
T3 construct: determined in kinobeads assays with mass spectrometry detection of kinases as described previously; endogenous in cells; host or cells: cell lysate
T3 sequence (Q9Y2U5 1-619): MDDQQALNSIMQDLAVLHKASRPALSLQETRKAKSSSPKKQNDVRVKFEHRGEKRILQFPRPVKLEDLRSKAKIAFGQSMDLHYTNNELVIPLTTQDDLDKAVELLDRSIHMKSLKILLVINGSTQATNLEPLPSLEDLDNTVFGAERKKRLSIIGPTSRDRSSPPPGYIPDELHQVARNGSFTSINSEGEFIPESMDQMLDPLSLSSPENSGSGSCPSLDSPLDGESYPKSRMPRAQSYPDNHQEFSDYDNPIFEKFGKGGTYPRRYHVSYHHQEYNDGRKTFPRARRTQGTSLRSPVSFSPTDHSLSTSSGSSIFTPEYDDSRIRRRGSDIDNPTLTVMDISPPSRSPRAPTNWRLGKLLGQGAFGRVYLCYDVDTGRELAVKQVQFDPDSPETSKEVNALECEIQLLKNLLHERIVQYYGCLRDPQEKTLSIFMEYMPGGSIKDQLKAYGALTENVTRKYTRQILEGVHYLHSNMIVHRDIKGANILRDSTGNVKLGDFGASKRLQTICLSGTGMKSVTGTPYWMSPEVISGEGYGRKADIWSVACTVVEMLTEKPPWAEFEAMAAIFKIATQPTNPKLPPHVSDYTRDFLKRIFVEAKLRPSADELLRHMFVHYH
Text: as §1

kinases (kinome) [4] = target: T4, kinases (kinome) (Homo sapiens, UniProt Q8IU85); settings: CaMK1d (CAMK), IPI00170508
T4 construct: determined in kinobeads assays with mass spectrometry detection of kinases as described previously; endogenous in cells; host or cells: cell lysate
Text: as §1

kinases (kinome) [5] = target: T5, kinases (kinome) (Homo sapiens, UniProt Q86YV5); settings: SgK223 (Other), IPI00739386
T5 construct: determined in kinobeads assays with mass spectrometry detection of kinases as described previously; endogenous in cells; host or cells: cell lysate
T5 sequence (Q86YV5 1-1406): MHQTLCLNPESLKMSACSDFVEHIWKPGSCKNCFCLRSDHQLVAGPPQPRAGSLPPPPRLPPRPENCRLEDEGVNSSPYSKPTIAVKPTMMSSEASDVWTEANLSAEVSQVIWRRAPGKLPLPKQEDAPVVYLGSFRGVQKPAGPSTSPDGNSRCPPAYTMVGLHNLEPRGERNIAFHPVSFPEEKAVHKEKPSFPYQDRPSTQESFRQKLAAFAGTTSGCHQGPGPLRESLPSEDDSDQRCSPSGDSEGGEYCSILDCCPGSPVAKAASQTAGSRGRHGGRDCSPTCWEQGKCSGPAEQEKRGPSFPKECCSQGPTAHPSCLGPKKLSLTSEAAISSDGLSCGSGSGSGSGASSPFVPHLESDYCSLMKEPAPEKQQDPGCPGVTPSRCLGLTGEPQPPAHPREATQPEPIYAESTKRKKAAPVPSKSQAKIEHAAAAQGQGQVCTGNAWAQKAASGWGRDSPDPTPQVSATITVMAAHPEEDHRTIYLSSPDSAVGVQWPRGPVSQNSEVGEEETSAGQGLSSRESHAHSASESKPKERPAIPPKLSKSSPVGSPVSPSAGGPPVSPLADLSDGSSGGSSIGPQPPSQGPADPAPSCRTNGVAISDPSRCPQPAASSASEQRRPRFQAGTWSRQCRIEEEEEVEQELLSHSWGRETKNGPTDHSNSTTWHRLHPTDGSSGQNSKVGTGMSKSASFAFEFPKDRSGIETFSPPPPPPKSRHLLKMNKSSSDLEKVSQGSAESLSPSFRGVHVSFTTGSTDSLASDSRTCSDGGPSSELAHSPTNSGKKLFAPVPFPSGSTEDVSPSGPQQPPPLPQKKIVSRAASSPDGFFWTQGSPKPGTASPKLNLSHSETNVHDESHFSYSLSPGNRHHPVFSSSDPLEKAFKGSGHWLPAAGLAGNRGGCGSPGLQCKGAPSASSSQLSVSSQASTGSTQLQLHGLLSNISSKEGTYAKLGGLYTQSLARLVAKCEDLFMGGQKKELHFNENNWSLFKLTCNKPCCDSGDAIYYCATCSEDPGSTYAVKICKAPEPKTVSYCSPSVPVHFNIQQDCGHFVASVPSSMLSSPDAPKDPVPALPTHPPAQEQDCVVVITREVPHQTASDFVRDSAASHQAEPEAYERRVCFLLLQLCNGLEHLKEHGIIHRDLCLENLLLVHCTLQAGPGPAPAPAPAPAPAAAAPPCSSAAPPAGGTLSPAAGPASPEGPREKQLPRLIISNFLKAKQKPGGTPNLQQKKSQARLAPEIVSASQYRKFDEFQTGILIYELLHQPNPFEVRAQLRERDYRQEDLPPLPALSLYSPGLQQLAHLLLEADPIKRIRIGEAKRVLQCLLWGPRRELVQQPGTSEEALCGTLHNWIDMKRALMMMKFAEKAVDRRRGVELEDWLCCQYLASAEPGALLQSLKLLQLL
Text: as §1

Measured: IC50

T4 sequence (Q8IU85 whole entry): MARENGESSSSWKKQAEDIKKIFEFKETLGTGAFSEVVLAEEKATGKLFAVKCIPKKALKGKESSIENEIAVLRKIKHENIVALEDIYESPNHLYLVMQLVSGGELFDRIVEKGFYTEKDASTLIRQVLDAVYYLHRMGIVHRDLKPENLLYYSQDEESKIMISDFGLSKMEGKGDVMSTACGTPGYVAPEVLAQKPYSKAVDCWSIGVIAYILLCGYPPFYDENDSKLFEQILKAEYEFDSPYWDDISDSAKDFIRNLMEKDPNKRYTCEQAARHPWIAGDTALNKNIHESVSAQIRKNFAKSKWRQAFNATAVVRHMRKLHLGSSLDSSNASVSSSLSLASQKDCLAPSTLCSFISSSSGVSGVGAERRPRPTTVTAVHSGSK
T1 sequence (P19784 whole entry): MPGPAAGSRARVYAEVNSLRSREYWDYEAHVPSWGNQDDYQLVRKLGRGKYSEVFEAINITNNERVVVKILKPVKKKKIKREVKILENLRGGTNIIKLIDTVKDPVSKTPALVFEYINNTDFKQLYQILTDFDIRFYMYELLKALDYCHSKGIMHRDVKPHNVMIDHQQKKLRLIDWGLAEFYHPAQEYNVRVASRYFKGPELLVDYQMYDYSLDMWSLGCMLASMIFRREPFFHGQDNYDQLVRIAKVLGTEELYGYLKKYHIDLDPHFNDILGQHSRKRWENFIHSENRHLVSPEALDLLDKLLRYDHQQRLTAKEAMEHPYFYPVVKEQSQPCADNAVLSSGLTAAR

C[C@H]1COCCN1c1nc(-c2ccc(NC(=O)NC3CC3)cc2)cc(-c2ccccc2S(C)(=O)=O)n1 [Example 4, (S)-1-cyclopropyl-3-(4-(2-(3-methylmorpholino)-6-(2-(methylsulfonyl)phenyl)pyrimidin-4-yl)phenyl)urea]
not listed: kinases (kinome) [5]
> 10 µM: all other assays above

C[C@H]1COCCN1c1cc(-c2ccccc2S(C)(=O)=O)nc(-c2ccc(NC(=O)NC3CC3)cc2)n1 [Example 6, (S)-1-cyclopropyl-3-(4-(4-(3-methylmorpholino)-6-(2-(methylsulfonyl)phenyl)pyrimidin-2-yl)phenyl)urea]
> 10 µM: all assays above

C[C@H]1COCCN1c1nc(-c2ccc(NC(=O)N[C@H]3CCC[C@@H]3O)cc2)cc(-c2cc(F)ccc2S(C)(=O)=O)n1 [Example 76, 1-(4-(6-(5-fluoro-2-(methylsulfonyl)phenyl)-2-((S)-3-methylmorpholino)pyrimidin-4-yl)phenyl)-3-((1S,2S)-2-hydroxycyclopentyl)urea]
> 10 µM: all assays above

C[C@H]1COCCN1c1nc(-c2ccc(NC(=O)NC3CC3)cc2)cc(-c2cccnc2S(C)(=O)=O)n1 [Example 46, (S)-1-cyclopropyl-3-(4-(2-(3-methylmorpholino)-6-(2-(methylsulfonyl)pyridin-3-yl)pyrimidin-4-yl)phenyl)urea]
> 10 µM: all assays above

C[C@H]1COCCN1c1cc(-c2ccccn2)nc(-c2ccc(NC(=O)NCCO)cc2)n1 [Example 43, (S)-1-(2-hydroxyethyl)-3-(4-(4-(3-methylmorpholino)-6-(pyridin-2-yl)pyrimidin-2-yl)phenyl)urea]
> 10 µM: all assays above

C[C@H]1COCCN1c1nc(-c2ccc(NC(=O)NC3CC3)cc2)cc(-c2cc(F)ccc2S(C)(=O)=O)n1 [Example 40, (S)-1-cyclopropyl-3-(4-(6-(5-fluoro-2-(methylsulfonyl)phenyl)-2-(3-methylmorpholino)pyrimidin-4-yl)phenyl)urea]
> 10 µM: all assays above

CCNC(=O)Nc1ccc(-c2cc(-c3ccccc3C#N)nc(N3CCOC[C@@H]3C)n2)cc1 [Example 8, (S)-1-(4-(6-(2-cyanophenyl)-2-(3-methylmorpholino)pyrimidin-4-yl)phenyl)-3-ethylurea]
> 10 µM: all assays above
